Measurements: PMC10949195, “Exponential Combination of a and e/g Intracellular Peptide Libraries Identifies a Selective ATF3 Inhibitor” (ACS Chemical Biology, 2024)

How the values were obtained:
[1] = CD thermal denaturation of peptide in isolation; assay type: physicochemical; conditions: CD at 222 nm; 150 μM total peptide; 10 mM potassium phosphate, 100 mM potassium fluoride, pH 7
Excerpt: (§1) Following the observed significant increase in global secondary structure content for the ATF3-ATF3W_aeg complex relative to component peptides (Figure 6), we next analyzed the stability of the complex by undertaking thermal denaturation experiments (Figure 7). […] Moreover, consistent with spectral data, the clear increase from the average profile of the component peptides relative to that of the measured is most pronounced in the combined construct (Figure 7, red hash vs black). This provides robust additional evidence for a preferential interaction between ATF3 and ATF3W_aeg that is improved over either the core a or electrostatic e/g constructs.
Shown are thermal stabilities of peptide pairs measured via temperature dependence of the CD signal at 222 nm. The thermal denaturation profiles for (a) ATF3-ATF3W_a, (b) ATF3-ATF3W_eg, and (c) ATF3-ATF3W_aeg show a substantial increase in the transition midpoint (Tm = 59 °C) relative to component peptides (black vs red hash). Experiments were performed in 10 mM potassium phosphate and 100 mM potassium fluoride (pH 7.0). All spectra were recorded at 1 °C increments at a total peptide concentration of 150 μM and fitted to a two-state denaturation model. […]

ATF3 [2] = target: T1, ATF3 (Homo sapiens, UniProt P18847); experiment: Isothermal titration calorimetry (ITC); assay type: binding; conditions: 20 °C, pH 7.0
T1 construct: We focus on the selective targeting of the ATF3 leucine zipper dimerization domain using intracellular peptide library screening; made in house; host or cells: chemical solid-phase peptide synthesis (no expression host)
T1 sequence (P18847 110-143): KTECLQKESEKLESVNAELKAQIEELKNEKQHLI
Experimental: To provide additional insight into the origin of the binding affinity (KD) between ATF3 and ATF3W_aeg, isothermal titration calorimetry (ITC) experiments were performed. […] The free energy of binding was predominantly driven by a favorable enthalpic term (ΔH = −14.6 kcal/mol) and opposed by an unfavorable entropic component (TΔS= −5.33 kcal/mol).
Figure 9 Isothermal titration calorimetry analysis of the ATF3-ATF3W_aeg interaction. In the bottom plot, the solid line represents the fit to the data based on the binding of a ligand to a macromolecule using the MicroCal (GE Healthcare) Origin software.[16] See Materials and Methods for further details.
ITC measurements were made using a Microcal PEAQ-ITC instrument with data collected and processed using the Origin 7.0 software package.[14],[23] All measurements were carried out at least twice. Briefly, all peptides were studied at 20 °C in 10 mM potassium phosphate and 100 mM potassium fluoride at pH 7.0. 40 μL of ATF3W_aeg was loaded into the syringe at 60 μM peptide concentration. 350 μL of ATF3 was loaded into the cell at 6 μM. The experiment was undertaken by injecting 2 μL of ATF3W_aeg 19 times into the calorimetric cell. Following ITC measurements, the data were fit to a one-site model.

[3] = Size-exclusion chromatography of peptide alone; assay type: physicochemical; conditions: Superdex Peptide 10/300 GL, RT; 20 μM total peptide
Experimental: During SEC experiments, monomeric ATF3 (Figure 8, blue line) and ATF3W_aeg (Figure 8, green line) eluted at approximately 20 min. These contrast with the dimeric profile observed for ATF3-ATF3W_aeg (Figure 8, black line), which occurred at approximately 19 min. For all samples, elution profiles were consistent with either a validated monomer or dimer elution pattern.[15]
Figure 8 SEC profiles indicate that ATF3W_aeg binds ATF3. Shown are size exclusion chromatography profiles for interacting peptides. The peak at approx 19 min for the ATF3-ATF3W_aeg mixture (black trace) represents a dimeric sample while ATF3 (blue trace) and ATF3W_aeg (green trace) generate a peak at approx 20 min, indicating the presence of a monomer. These experiments, undertaken at a total peptide concentration of 20 μM, provide additional evidence for selectivity of the ATF3-ATF3W_aeg interaction. Arrows show controls from previous peptides with elution times for a 32 mer Fos monomeric peptide (20 min) and a 37 mer cJun–FosW heterodimer (18.5 min).[15]
Size-exclusion experiments were performed at RT using a Superdex Peptide 10/300 GL column (GE Healthcare Life Sciences) as described previously.[23]

ATF3 [4] = target: T1, ATF3; experiment: CD thermal denaturation of peptide mixed 1:1 with ATF3; assay type: binding; conditions: peptide incubated with ATF3; CD signal at 222 nm, 1 °C increments; 150 μM total peptide; 10 mM potassium phosphate, 100 mM potassium fluoride, pH 7.0; two-state denaturation model
Excerpt: as §1
Shown are thermal stabilities of peptide pairs measured via temperature dependence of the CD signal at 222 nm. The thermal denaturation profiles for (a) ATF3-ATF3W_a, (b) ATF3-ATF3W_eg, and (c) ATF3-ATF3W_aeg show a substantial increase in the transition midpoint (Tm = 59 °C) relative to component peptides (black vs red hash). Experiments were performed in 10 mM potassium phosphate and 100 mM potassium fluoride (pH 7.0). All spectra were recorded at 1 °C increments at a total peptide concentration of 150 μM and fitted to a two-state denaturation model.
Thermal denaturation experiments were performed at 150 μM total protein concentration in 10 mM potassium phosphate and 100 mM potassium fluoride, pH 7, using an Applied Photophysics Chirascan CD instrument (Leatherhead, UK) as previously described.[23]

ATF3 [5] = target: T1, ATF3; experiment: CD spectra of ATF3-ATF3W_aeg complex; assay type: binding; conditions: 1:1 stoichiometry with ATF3, 150 μM total peptide, pH 7.0
Experimental: ATF3, ATF3W_a, and ATF3W_eg and combined hit sequence ATF3W_aeg were synthesized using solid phase peptide synthesis, purified by RP-HPLC, and verified for correct mass using ESI-MS (Figure S3), after which circular dichroism (CD) was used to characterize both ATF3 and antagonist peptides for helicity and interactions as homodimers, as well as heterodimers with the ATF3 target. Global secondary analysis of both homodimeric and heterodimeric systems was carried out at a total peptide concentration of 150 μM to keep equimolar concentrations of each component helix. The 222/208 ratio was used to provide evidence on whether the helices were likely to be monomeric or adopt quaternary structure.[13] […] Furthermore, incubation of ATF3 with ATF3W_aeg elicited a significant conformational change in the sample relative to the average of the component peptides (Figure 6d black line vs red hash), providing compelling evidence for an interaction.[14] In addition, the component PCA hits were examined using CD.
Figure 6 CD spectra data indicates a ATF3-ATF3W_aeg interaction. […] Spectra were next measured at 20 and 5 °C and again post-thermal denaturation (PM 20 °C to establish reversible that unfolding is fully reversible) at a total peptide concentration of 150 μM and presented as mean residue ellipticity (MRE). […]

For “Ac-ELAALEQKAYALKQENAALEKEVAALEQKIAALK-NH2 (N-terminus and C-terminus assumed) [ATF3W_aeg]”, which “self-association in isolation (thermal denaturation profile)” value [1] is on record?
The value was “inability of ATF3W_aeg to form a stable homodimer in isolation”.

And the “N (sites), stoichiometry of binding to ATF3” value (ATF3 [2])?
Its value is 0.72.

What about the “TΔS of binding to ATF3” value (ATF3 [2]) of the same substance?
The value was -5.33 kcal/mol.

And the “ΔG of binding to ATF3” value (ATF3 [2])?
Its value is -9.31 kcal/mol.

And the “ΔH of binding to ATF3” value (ATF3 [2])?
Its value is -14.6 kcal/mol.

What about the “SEC elution time, peptide alone” value [3] of the same substance?
The value was “approximately 20 min”.

What about the “oligomeric state in solution by SEC, peptide alone” value [3] of the same substance?
Its value is “exclusively as a monomer”.

What about the “transition midpoint (Tm) of heterodimer with ATF3” value (ATF3 [4]) of the same substance?
Its value is 60 °C.

And the “222/208 ratio of ATF3-ATF3W_aeg complex” value (ATF3 [5])?
The value was 0.94.

And the “fractional helicity (fH) of ATF3-ATF3W_aeg complex” value (ATF3 [5])?
The value was roughly 68%.
